We go through 34 molecules from patent publication US20150291598A1 (NOVARTIS AG, priority 2012, published 2015).

The first experiment relates to P. falciparum (NF54 or 3D7 strain). Put plainly: Assay for P. falciparum proliferation in infected human blood cells (SYBR Green). The class given is cell-based, Plasmodium falciparum. As to conditions: Plasmodium falciparum, 3D7|NF54, Erythrocyte, in Homo sapiens, 72 h, NF54 or 3D7 infected human erythrocytes, 72 hours; read-out: EC50 (nM), inhibitory efficacy in delaying P. falciparum proliferation in infected human blood cells. The essentials:
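NF54 or 3D7 parasites in O+ human erythrocytes at 2.5% hematocrit and 0.3% parasitemia final, exposed to compounds 72 h at 37 °C under 93% N2/4% CO2/3% O2.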
Turning to `Cc1ccnc(N(C)C(=O)c2cn3c(-c4ccc(C(F)(F)F)cc4)cnc3cn2)c1` [Compound 328], the EC50 turned out to be 1090 nM.
Regarding `COc1ccc(-c2cnc3cnc(CN(C)c4ccc(C)cn4)cn23)cn1` [Compound 338], the EC50 was determined as 4080 nM.

The same experiment, now with this note: Plasmodium falciparum, Erythrocyte, 72 h, NF54 or 3D7 infected human erythrocytes, 72 hours; read-out: EC50 (nM), inhibitory efficacy in delaying P. falciparum proliferation in infected human blood cells.
For the molecule `CN(C(=O)c1cn2c(-c3ccc(C(F)(F)F)cc3)cnc2cn1)c1ccc(N2CCOCC2)cn1` [Compound 321, N-methyl-N-[5-(morpholin-4-yl)pyridin-2-yl]-3-[4-(trifluoromethyl)phenyl]imidazo[1,2-a]pyrazine-6-carboxamide], the EC50 amounted to 2260 nM.
As to `CN(C(=O)N1CCC(F)CC1)c1cn2c(-c3ccc(C(F)(F)F)cc3)cnc2cn1` [Compound 322, 4-fluoro-N-methyl-N-{3-[4-(trifluoromethyl)phenyl]imidazo[1,2-a]pyrazin-6-yl}piperidine-1-carboxamide], the EC50 was 2710 nM.
As for `CN(C(=O)c1cn2c(-c3ccc(NC(C)(C)CN)cc3)cnc2cn1)c1ccc(C#N)cc1` [Compound 324, 3-{4-[(1-amino-2-methylpropan-2-yl)amino]phenyl}-N-(4-cyanophenyl)-N-methylimidazo[1,2-a]pyrazine-6-carboxamide], the EC50 is 1230 nM.
On to `CN(C(=O)c1cn2c(-c3ccc4occc4c3)cnc2cn1)c1ccc(Cl)nc1` [Compound 325, 3-(1-benzofuran-5-yl)-N-(6-chloropyridin-3-yl)-N-methylimidazo[1,2-a]pyrazine-6-carboxamide], for which the EC50 is 4140 nM.
Turning to `CN(C(=O)c1cn2c(-c3ccc(C(F)(F)F)cc3)cnc2cn1)c1cccnc1` [Compound 326, N-methyl-N-(pyridin-3-yl)-3-[4-(trifluoromethyl)phenyl]imidazo[1,2-a]pyrazine-6-carboxamide], the EC50 was found to be 2090 nM.
`Cc1cnc(N(C)C(=O)c2cn3c(-c4ccc(C(F)(F)F)cc4)cnc3cn2)cn1` [Compound 327, N-methyl-N-(5-methylpyrazin-2-yl)-3-[4-(trifluoromethyl)phenyl]imidazo[1,2-a]pyrazine-6-carboxamide]: the EC50 is 3310 nM.
Take `CN(C(=O)c1cn2c(-c3ccc(C(F)(F)F)cc3)cnc2cn1)c1ccnc(C(F)(F)F)c1` [Compound 329, N-methyl-3-[4-(trifluoromethyl)phenyl]-N-[2-(trifluoromethyl)pyridin-4-yl]imidazo[1,2-a]pyrazine-6-carboxamide]: the EC50 is 2760 nM.
`CN(C(=O)c1cn2c(-c3ccc(-n4cccn4)cc3)cnc2cn1)c1ccc(Cl)nc1` [Compound 330, N-(6-chloropyridin-3-yl)-N-methyl-3-[4-(1H-pyrazol-1-yl)phenyl]imidazo[1,2-a]pyrazine-6-carboxamide]: the EC50 was 1960 nM.
Still for that read-out and setting: as for `CNC(=O)c1ccc(-c2cnc3cnc(C(=O)N(C)c4ccc(C#N)cc4)cn23)cn1` [Compound 331, 5-{6-[(4-cyanophenyl)(methyl)carbamoyl]imidazo[1,2-a]pyrazin-3-yl}-N-methylpyridine-2-carboxamide], the figure is 1740 nM; as for `CN(C(=O)c1cn2c(-c3ccc(C(F)(F)F)c(F)c3)cnc2cn1)c1ccc(Cl)nc1` [Compound 332, N-(6-chloropyridin-3-yl)-3-[3-fluoro-4-(trifluoromethyl)phenyl]-N-methylimidazo[1,2-a]pyrazine-6-carboxamide], 3410 nM; as for `COc1ncc(-c2cnc3cnc(C(=O)N(C)c4ccc(C#N)cc4)cn23)cn1` [Compound 333, N-(4-cyanophenyl)-3-(2-methoxypyrimidin-5-yl)-N-methylimidazo[1,2-a]pyrazine-6-carboxamide], 4130 nM.
For the molecule `CCc1ccnc(NC(=O)c2cn3c(-c4ccc(C(F)(F)F)cc4)cnc3cn2)c1` [Compound 334, N-(4-ethylpyridin-2-yl)-3-[4-(trifluoromethyl)phenyl]imidazo[1,2-a]pyrazine-6-carboxamide], the EC50 was over 5190 nM.
`COc1cncc(-c2cnc3cnc(C(=O)N(C)c4ccc(C#N)cc4)cn23)n1` [Compound 335, N-(4-cyanophenyl)-3-(6-methoxypyrazin-2-yl)-N-methylimidazo[1,2-a]pyrazine-6-carboxamide]: the EC50 was 5340 nM.
On to `COc1ccc(-c2cnc3cnc(C(=O)N(C)c4ccc(Cl)nc4)cn23)cn1` [Compound 336, N-(6-chloropyridin-3-yl)-3-(6-methoxypyridin-3-yl)-N-methylimidazo[1,2-a]pyrazine-6-carboxamide], for which the EC50 turned out to be 6930 nM.
As for `CN(C(=O)c1cn2c(-c3ccc(C(F)(F)F)cc3)cnc2cn1)c1ccc(C(F)(F)F)cn1` [Compound 337, N-methyl-3-[4-(trifluoromethyl)phenyl]-N-[5-(trifluoromethyl)pyridin-2-yl]imidazo[1,2-a]pyrazine-6-carboxamide], the EC50 is over 7160 nM.
On the same count and under the same terms, as for `Cc1noc(-c2ccc(-c3cnc4cnc(C(=O)N(C)c5ccc(C#N)cc5)cn34)cc2)n1` [Compound 339, N-(4-cyanophenyl)-N-methyl-3-[4-(3-methyl-1,2,4-oxadiazol-5-yl)phenyl]imidazo[1,2-a]pyrazine-6-carboxamide], the figure is 1260 nM; as for `CN(C(=O)c1cn2c(-c3ccc(N4CCOCC4)cc3)cnc2cn1)c1ccc(Cl)nc1` [Compound 340, N-(6-chloropyridin-3-yl)-N-methyl-3-[4-(morpholin-4-yl)phenyl]imidazo[1,2-a]pyrazine-6-carboxamide], 6850 nM; as for `CN(C(=O)c1cn2c(-c3ccc(C#N)cc3)c(C(F)(F)F)nc2cn1)c1ccc(C#N)cc1` [Compound 341, N,3-bis(4-cyanophenyl)-N-methyl-2-(trifluoromethyl)imidazo[1,2-a]pyrazine-6-carboxamide], 5790 nM.
Take `CN(C(=O)c1cn2c(-c3ccc(C(F)(F)F)cc3)cnc2cn1)c1ccc(Cl)nc1Cl` [Compound 342, N-(2,6-dichloropyridin-3-yl)-N-methyl-3-[4-(trifluoromethyl)phenyl]imidazo[1,2-a]pyrazine-6-carboxamide]: the EC50 came out at 393 nM.
Still for that read-out and setting: as for `CN(C(=O)c1cn2c(-c3ccc(C(=O)NC4CC4)cc3)cnc2cn1)c1ccc(Cl)nc1` [Compound 343, N-(6-chloropyridin-3-yl)-3-[4-(cyclopropylcarbamoyl)phenyl]-N-methylimidazo[1,2-a]pyrazine-6-carboxamide], the figure is 6780 nM.
For the molecule `CN(C)c1ncc(-c2cnc3cnc(C(=O)N(C)c4ccc(C#N)cc4)cn23)cn1` [Compound 344, N-(4-cyanophenyl)-3-[2-(dimethylamino)pyrimidin-5-yl]-N-methylimidazo[1,2-a]pyrazine-6-carboxamide], the EC50 came to 2990 nM.
Consider `Cc1cccc(N(C)C(=O)c2cn3c(-c4ccc(C(F)(F)F)cc4)cnc3cn2)n1` [Compound 345, N-methyl-N-(6-methylpyridin-2-yl)-3-[4-(trifluoromethyl)phenyl]imidazo[1,2-a]pyrazine-6-carboxamide], for which the EC50 was determined as 2300 nM.
Same read-out and setting: in the case of `CN(C(=O)c1cn2c(-c3ccc(C(F)(F)F)cc3)cnc2cn1)c1ccccc1OC(F)F` [Compound 346, N-[2-(difluoromethoxy)phenyl]-N-methyl-3-[4-(trifluoromethyl)phenyl]imidazo[1,2-a]pyrazine-6-carboxamide] it was 242 nM; in that of `CN(c1cn2c(-c3ccc(C(F)(F)F)cc3)cnc2cn1)S(=O)(=O)c1ccc(C#N)cc1` [Compound 347, 4-cyano-N-methyl-N-{3-[4-(trifluoromethyl)phenyl]imidazo[1,2-a]pyrazin-6-yl}benzene-1-sulfonamide], 3260 nM; in that of `CN(C(=O)c1cn2c(-c3ccc(C(F)(F)F)cc3)cnc2cn1)c1cc(C(F)(F)F)ccn1` [Compound 348, N-methyl-3-[4-(trifluoromethyl)phenyl]-N-[4-(trifluoromethyl)pyridin-2-yl]imidazo[1,2-a]pyrazine-6-carboxamide], 4690 nM.
As to `CN(C(=O)c1cn2c(-c3ccc4[nH]ncc4c3)cnc2cn1)c1ccc(Cl)nc1` [Compound 349, N-(6-chloropyridin-3-yl)-3-(1H-indazol-5-yl)-N-methylimidazo[1,2-a]pyrazine-6-carboxamide], the EC50 stood at 4680 nM.
`CC1(C)CN(C(=O)c2cn3c(-c4ccc(C(F)(F)F)cc4)cnc3cn2)c2ccc(C#N)cc2O1` [Compound 350, 2,2-dimethyl-4-({3-[4-(trifluoromethyl)phenyl]imidazo[1,2-a]pyrazin-6-yl}carbonyl)-3,4-dihydro-2H-1,4-benzoxazine-7-carbonitrile]: the EC50 was over 5630 nM.
For the molecule `CN(C(=O)c1cn2c(-c3cccc(F)n3)cnc2cn1)c1ccc(C#N)cc1` [Compound 351, N-(4-cyanophenyl)-3-(6-fluoropyridin-2-yl)-N-methylimidazo[1,2-a]pyrazine-6-carboxamide], the EC50 turned out to be 5620 nM.
With `CN(C(=O)c1cn2c(-c3ccc(OC(C)(C)C(N)=O)cc3)cnc2cn1)c1ccc(C#N)cc1` [Compound 352, 3-[4-(1-carbamoyl-1-methylethoxy)phenyl]-N-(4-cyanophenyl)-N-methylimidazo[1,2-a]pyrazine-6-carboxamide], the EC50 amounted to 876 nM.
On the same count and under the same terms, as for `COc1ccc(N(C)C(=O)c2cn3c(-c4ccc(C(F)(F)F)cc4)cnc3cn2)nc1` [Compound 353, N-(5-methoxypyridin-2-yl)-N-methyl-3-[4-(trifluoromethyl)phenyl]imidazo[1,2-a]pyrazine-6-carboxamide], the figure is 3900 nM.
Same read-out and setting: in the case of `CN(C(=O)c1cn2c(-c3ncccc3Cl)cnc2cn1)c1ccc(C#N)cc1` [Compound 354, 3-(3-chloropyridin-2-yl)-N-(4-cyanophenyl)-N-methylimidazo[1,2-a]pyrazine-6-carboxamide] it was 6070 nM; in that of `CN(C(=O)c1cn2c(-c3ccc(C(F)(F)F)cc3)cnc2cn1)c1cncc(Cl)c1` [Compound 355, N-(5-chloropyridin-3-yl)-N-methyl-3-[4-(trifluoromethyl)phenyl]imidazo[1,2-a]pyrazine-6-carboxamide], 2120 nM.
